System: P12-Ichikawa
Experiment: cell viability relative to DMSO control; higher = less cytotoxic
Settings: 48 h
In short: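 Library compounds in DMSO were pin-dosed into 1536-well plates (5 μl) holding NOMO1 or SEM (500 cells/well) or P12-Ichikawa (1000 cells/well) leukemia cells, across an 11-point threefold series of 47 μM to 0.79 nM. Each cell line had been adapted for at least four passages in each medium. CellTiter-Glo One luminescence was read after 48 h at 37°C. Viability is the per-plate percentage relative to DMSO wells, with cell-free wells as background.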

[1] = HPLM + 10% dialyzed FBS, 0.000781 µM
[2] = HPLM + 10% dialyzed FBS, 0.00234 µM
[3] = HPLM + 10% dialyzed FBS, 0.00702 µM
[4] = HPLM + 10% dialyzed FBS, 0.0211 µM
[5] = HPLM + 10% dialyzed FBS, 0.0632 µM
[6] = HPLM + 10% dialyzed FBS, 0.19 µM
[7] = HPLM + 10% dialyzed FBS, 0.569 µM
[8] = HPLM + 10% dialyzed FBS, 1.71 µM
[9] = HPLM + 10% dialyzed FBS, 5.12 µM
[10] = HPLM + 10% dialyzed FBS, 15.4 µM
[11] = HPLM + 10% dialyzed FBS, 46.1 µM
[12] = RPMI 5 mM glucose + 10% FBS, 0.000781 µM
[13] = RPMI 5 mM glucose + 10% FBS, 0.00234 µM
[14] = RPMI 5 mM glucose + 10% FBS, 0.00702 µM
[15] = RPMI 5 mM glucose + 10% FBS, 0.0211 µM
[16] = RPMI 5 mM glucose + 10% FBS, 0.0632 µM
[17] = RPMI 5 mM glucose + 10% FBS, 0.19 µM
[18] = RPMI 5 mM glucose + 10% FBS, 0.569 µM
[19] = RPMI 5 mM glucose + 10% FBS, 1.71 µM
[20] = RPMI 5 mM glucose + 10% FBS, 5.12 µM
[21] = RPMI 5 mM glucose + 10% FBS, 15.4 µM
[22] = RPMI 5 mM glucose + 10% FBS, 46.1 µM
[23] = RPMI 5 mM glucose + 10% dialyzed FBS, 0.000781 µM
[24] = RPMI 5 mM glucose + 10% dialyzed FBS, 0.00234 µM
[25] = RPMI 5 mM glucose + 10% dialyzed FBS, 0.00702 µM
[26] = RPMI 5 mM glucose + 10% dialyzed FBS, 0.0211 µM
[27] = RPMI 5 mM glucose + 10% dialyzed FBS, 0.0632 µM
[28] = RPMI 5 mM glucose + 10% dialyzed FBS, 0.19 µM
[29] = RPMI 5 mM glucose + 10% dialyzed FBS, 0.569 µM
[30] = RPMI 5 mM glucose + 10% dialyzed FBS, 1.71 µM
[31] = RPMI 5 mM glucose + 10% dialyzed FBS, 5.12 µM
[32] = RPMI 5 mM glucose + 10% dialyzed FBS, 15.4 µM
[33] = RPMI 5 mM glucose + 10% dialyzed FBS, 46.1 µM

| SMILES | cell viability [1] [%] | cell viability [2] [%] | cell viability [3] [%] | cell viability [4] [%] | cell viability [5] [%] | cell viability [6] [%] | cell viability [7] [%] | cell viability [8] [%] | cell viability [9] [%] | cell viability [10] [%] | cell viability [11] [%] | cell viability [12] [%] | cell viability [13] [%] | cell viability [14] [%] | cell viability [15] [%] | cell viability [16] [%] | cell viability [17] [%] | cell viability [18] [%] | cell viability [19] [%] | cell viability [20] [%] | cell viability [21] [%] | cell viability [22] [%] | cell viability [23] [%] | cell viability [24] [%] | cell viability [25] [%] | cell viability [26] [%] | cell viability [27] [%] | cell viability [28] [%] | cell viability [29] [%] | cell viability [30] [%] | cell viability [31] [%] | cell viability [32] [%] | cell viability [33] [%] |
| --- | --- | --- | --- | --- | --- | --- | --- | --- | --- | --- | --- | --- | --- | --- | --- | --- | --- | --- | --- | --- | --- | --- | --- | --- | --- | --- | --- | --- | --- | --- | --- | --- | --- |
| COC/1=C/C=C2\C(=C/C1=O)[C@H](CCC3=CC(=C(OC)C(=C23)OC)OC)NC(C)=O | 45.1 | 26.4 | 14.5 | 12.8 | 10.9 | 9.53 | 6.89 | 4.02 | 3.71 | 3.18 | 1.19 | 32.3 | 19.7 | 15.6 | 10.3 | 9.46 | 7.35 | 5.7 | 4.23 | 4.86 | 3.24 | 2.12 | 41.3 | 34.3 | 21.5 | 16 | 13.2 | 8.83 | 8.91 | 4.52 | 4.83 | 3.55 | 1.22 |
| CC(C)c1cnn2c(NCc3ccccc3)cc(NCCCCCCN)nc12 | 110 | 124 | 131 | 125 | 122 | 127 | 116 | 113 | 116 | 110 | 76.8 | – | – | – | – | – | – | – | – | – | – | – | – | – | – | – | – | – | – | – | – | – | – |
| C[S+](=O)([O-])c1ccc(C(=O)Nc2ccc(Cl)c(-c3ccccn3)c2)c(Cl)c1 | 113 | 113 | 123 | 132 | 131 | 135 | 136 | 125 | 131 | 126 | 127 | – | – | – | – | – | – | – | – | – | – | – | – | – | – | – | – | – | – | – | – | – | – |
| COC1=C2C[C@@H](C)C[C@H](OC)[C@H](O)[C@@H](C)/C=C(\C)[C@H](OC(N)=O)[C@@H](OC)/C=C/C=C(\C)C(=O)NC(=CC1=O)C2=O | 114 | 106 | 116 | 109 | 107 | 113 | 98.6 | 104 | 77.4 | 48.4 | 38.6 | 106 | 109 | 108 | 112 | 108 | 108 | 102 | 90.8 | 80.5 | 51.5 | 27.2 | 116 | 117 | 114 | 111 | 108 | 111 | 108 | 94.4 | 72.2 | 34.2 | 28 |
| CN(C)c1nc(Cc2ccc(NC(=O)c3ccc4ccccc4c3)cc2)nc(Cl)c1CC(=O)O | 112 | 112 | 101 | 101 | 108 | 124 | 104 | 99.4 | 84.8 | 84.8 | 69.3 | 117 | 107 | 124 | 115 | 117 | 114 | 107 | 98.7 | 87.2 | 69.8 | 73.6 | 106 | 113 | 113 | 111 | 106 | 107 | 105 | 104 | 84 | 68.7 | 61.5 |
| COC[C@H](c1ccc(C(F)(F)F)cc1)N1CCN(C2(C)CCN(C(=O)c3c(C)ncnc3C)CC2)C[C@H]1C.O=C(O)/C=C\C(=O)O | 92 | 100 | 107 | 111 | 107 | 110 | 113 | 117 | 106 | 103 | 98.5 | 101 | 123 | 109 | 110 | 106 | 121 | 109 | 104 | 105 | 99.8 | 99.3 | 90.1 | 108 | 99.7 | 110 | 103 | 111 | 117 | 110 | 102 | 95.2 | 92.1 |
| Nc1ncnc2ccccc12 | 87.8 | 92.3 | 95.5 | 9.38 | 106 | 100 | 106 | 105 | 105 | 100 | 111 | 84.2 | 90.7 | 88.3 | 13.7 | 104 | 102 | 105 | 97.2 | 97.8 | 104 | 104 | 86.2 | 91.8 | 93.5 | 28.2 | 102 | 102 | 100 | 92.3 | 103 | 99.1 | 94 |
| COC1=CC=CC(=C1N)\C2=C\C(=O)C3=C(O2)C=CC=C3 | 110 | 122 | 122 | 133 | 128 | 129 | 134 | 129 | 129 | 133 | 120 | – | – | – | – | – | – | – | – | – | – | – | – | – | – | – | – | – | – | – | – | – | – |
| CC(C)c1cc(C(=O)N2Cc3ccc(CN4CCN(C)CC4)cc3C2)c(O)cc1O | 118 | 121 | 123 | 106 | 124 | 109 | 89.3 | 65.8 | 54.7 | 52.8 | 51.4 | 115 | 119 | 115 | 105 | 114 | 97.7 | 56.4 | 52.5 | 41.3 | 40.7 | 39.8 | 119 | 122 | 125 | 112 | 125 | 112 | 65.3 | 50 | 43.3 | 44.5 | 43.3 |
